For this experiment, the target named is Growth factor receptor-bound protein 2 (Homo sapiens, UniProt P62993). Put plainly: Inhibitory concentration required against Src homology (SH2) domain of Growth factor receptor bound protein 2 by ELISA binding assay. Background: An ELISA detects its analyte on a solid surface through an enzyme-linked reagent.
Chain of Growth factor receptor-bound protein 2 (P62993 whole entry): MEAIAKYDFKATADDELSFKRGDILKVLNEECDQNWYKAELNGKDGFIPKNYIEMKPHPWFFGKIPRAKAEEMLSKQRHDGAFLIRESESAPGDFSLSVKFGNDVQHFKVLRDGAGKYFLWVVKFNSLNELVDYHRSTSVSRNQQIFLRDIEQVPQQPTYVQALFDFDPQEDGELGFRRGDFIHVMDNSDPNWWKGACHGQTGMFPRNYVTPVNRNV
The compound `COc1cc2cccc(CCCNC(=O)[C@H](CC(N)=O)NC(=O)C3(NC(=O)[C@H](Cc4ccc(CP(=O)(O)O)cc4)NC(C)=O)CCCCC3)c2cc1OC` registered an IC50 of 0.0844 µM.

For the compound `CC(=O)N[C@@H](Cc1ccc(CP(=O)(O)O)cc1)C(=O)NC1(C(=O)N[C@@H](CC(N)=O)C(=O)NCCCc2ccc3cccc(O)c3c2)CCCCC1`, the IC50 was 0.0111 µM.

`CC(=O)N[C@@H](Cc1ccc(CP(=O)(O)O)cc1)C(=O)NC1(C(=O)N[C@@H](CC(N)=O)C(=O)NCCCc2cccc3ccccc23)CCCCC1` came in with an IC50 of 0.0429 µM.

Compound `CC(=O)N[C@@H](Cc1ccc(CP(=O)(O)O)cc1)C(=O)NC1(C(=O)N[C@@H](CC(N)=O)C(=O)NCCCc2cccc3ccc(O)cc23)CCCCC1` returned an IC50 of 0.0246 µM.

`CC(=O)N[C@@H](Cc1ccc(CP(=O)(O)O)cc1)C(=O)NC1(C(=O)N[C@@H](CC(N)=O)C(=O)NCCCc2cccc3cc(O)ccc23)CCCCC1` registered an IC50 of 0.0427 µM.

In the case of `COc1ccc2c(CCCNC(=O)[C@H](CC(N)=O)NC(=O)C3(NC(=O)[C@H](Cc4ccc(CP(=O)(O)O)cc4)NC(C)=O)CCCCC3)cccc2c1`, the concentration for half-maximal inhibition (IC50) was 0.13 µM.

With `CC(=O)N[C@@H](Cc1ccc(CP(=O)(O)O)cc1)C(=O)NC1(C(=O)N[C@@H](CC(N)=O)C(=O)NCCCc2c(O)ccc3ccccc23)CCCCC1` [CGP-78850], the IC50 is 0.043 µM.

One may read the IC50 as the concentration that inhibits the measured activity by half. Low values mean inhibition by little substance, high ones a need for much substance.

Source of the values: ChEMBL document CHEMBL1134833, “Convergent synthesis of potent peptide inhibitors of the Grb2-SH2 domain by palladium catalyzed coupling of a terminal alkyne” (Bioorg Med Chem Lett, 2001).
